# Publication PMC11167047 (Cell Death Discovery, 2024)
# Legend:
# Assay in all cases: kinome screen (33PanQinase)
# Format in all cases: biochemical
# CAMKK1 = target: T1, CAMKK1 (Homo sapiens, UniProt Q8N5S9)
# T1 construct: purchased Reaction Biology Europe GmbH (formerly ProQinase)
# Protocol: (§1) The Kinome Screening was performed by Reaction Biology Europe GmbH (http://reactionbiology.com; Freiburg i. Br., Germany).
# CDK2/CycA2 = target: T2, CDK2/CycA2 (Homo sapiens, UniProt P24941)
# T2 construct: purchased Reaction Biology Europe GmbH (formerly ProQinase)
# Protocol: as §1
# CDK3/CycC = target: T3, CDK3/CycC (Homo sapiens, UniProt Q00526)
# T3 construct: purchased Reaction Biology Europe GmbH (formerly ProQinase)
# Protocol: as §1
# COT = target: T4, COT (Homo sapiens, UniProt P41279)
# T4 construct: purchased Reaction Biology Europe GmbH (formerly ProQinase)
# Protocol: as §1
# EIF2AK2 = target: T5, EIF2AK2 (Homo sapiens, UniProt P19525)
# T5 construct: purchased Reaction Biology Europe GmbH (formerly ProQinase)
# Protocol: as §1
# FGFR1 = target: T6, FGFR1 (Homo sapiens, UniProt P11362)
# T6 construct: purchased Reaction Biology Europe GmbH (formerly ProQinase)
# Protocol: as §1
# LCK = target: T7, LCK (Homo sapiens, UniProt P06239)
# T7 construct: purchased Reaction Biology Europe GmbH (formerly ProQinase)
# Protocol: as §1
# MAP3K7/MAP3K7IP1 = target: T8, MAP3K7/MAP3K7IP1 (Homo sapiens, UniProt O43318)
# T8 construct: purchased Reaction Biology Europe GmbH (formerly ProQinase)
# T8 sequence (O43318 1-303 limits assumed): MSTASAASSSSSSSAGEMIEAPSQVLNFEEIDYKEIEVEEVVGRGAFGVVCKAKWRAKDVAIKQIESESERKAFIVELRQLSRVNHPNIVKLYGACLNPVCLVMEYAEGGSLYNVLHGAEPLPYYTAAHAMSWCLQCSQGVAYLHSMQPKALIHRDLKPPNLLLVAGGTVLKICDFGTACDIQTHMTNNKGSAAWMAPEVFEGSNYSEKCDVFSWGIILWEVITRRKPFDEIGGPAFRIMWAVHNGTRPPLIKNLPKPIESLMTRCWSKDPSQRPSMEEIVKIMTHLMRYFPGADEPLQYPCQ
# T8 sequence (Q15750 437-504 partner limits assumed): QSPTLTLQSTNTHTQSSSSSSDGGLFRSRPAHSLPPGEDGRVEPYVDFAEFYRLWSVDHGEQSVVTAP
# Protocol: as §1
# MST2 = target: T9, MST2 (Homo sapiens, UniProt Q13188)
# T9 construct: purchased Reaction Biology Europe GmbH (formerly ProQinase)
# T9 sequence (Q13188 1-491): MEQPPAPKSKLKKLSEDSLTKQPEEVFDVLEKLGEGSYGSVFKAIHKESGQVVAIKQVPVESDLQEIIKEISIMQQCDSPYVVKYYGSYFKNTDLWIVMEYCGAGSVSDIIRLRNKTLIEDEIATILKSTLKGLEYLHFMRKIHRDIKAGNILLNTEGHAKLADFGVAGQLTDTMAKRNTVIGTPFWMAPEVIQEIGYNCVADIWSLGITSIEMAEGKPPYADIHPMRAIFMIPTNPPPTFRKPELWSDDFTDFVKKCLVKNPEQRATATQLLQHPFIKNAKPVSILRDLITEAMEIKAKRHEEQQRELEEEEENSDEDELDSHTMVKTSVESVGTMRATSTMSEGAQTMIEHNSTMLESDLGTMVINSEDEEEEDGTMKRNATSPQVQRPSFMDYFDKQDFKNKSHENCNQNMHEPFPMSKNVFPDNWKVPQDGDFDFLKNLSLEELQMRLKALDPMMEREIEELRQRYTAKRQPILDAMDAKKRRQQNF
# Protocol: as §1
# NEK2 = target: T10, NEK2 (Homo sapiens, UniProt P51955)
# T10 construct: purchased Reaction Biology Europe GmbH (formerly ProQinase)
# T10 sequence (P51955 1-445): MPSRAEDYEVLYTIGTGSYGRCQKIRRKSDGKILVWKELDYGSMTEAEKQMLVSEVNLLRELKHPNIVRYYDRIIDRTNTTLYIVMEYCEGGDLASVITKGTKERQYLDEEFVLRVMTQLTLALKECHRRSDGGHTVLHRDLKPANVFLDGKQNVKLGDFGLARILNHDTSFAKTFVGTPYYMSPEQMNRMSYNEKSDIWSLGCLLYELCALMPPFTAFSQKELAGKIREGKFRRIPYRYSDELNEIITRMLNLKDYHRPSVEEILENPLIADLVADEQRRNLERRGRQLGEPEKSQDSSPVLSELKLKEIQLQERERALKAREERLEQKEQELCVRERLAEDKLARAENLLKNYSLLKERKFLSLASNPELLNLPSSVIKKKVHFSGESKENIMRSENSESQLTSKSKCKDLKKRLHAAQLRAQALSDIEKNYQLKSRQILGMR
# Protocol: as §1
# PAK3 = target: T11, PAK3 (Homo sapiens, UniProt O75914)
# T11 construct: purchased Reaction Biology Europe GmbH (formerly ProQinase)
# Protocol: as §1
# PKCη = target: T12, PKCη (Homo sapiens, UniProt P24723)
# T12 construct: purchased Reaction Biology Europe GmbH (formerly ProQinase)
# Protocol: as §1
# TTBK2 = target: T13, TTBK2 (Homo sapiens, UniProt Q6IQ55)
# T13 construct: purchased Reaction Biology Europe GmbH (formerly ProQinase)
# Protocol: as §1
# T12 sequence (P24723 whole entry): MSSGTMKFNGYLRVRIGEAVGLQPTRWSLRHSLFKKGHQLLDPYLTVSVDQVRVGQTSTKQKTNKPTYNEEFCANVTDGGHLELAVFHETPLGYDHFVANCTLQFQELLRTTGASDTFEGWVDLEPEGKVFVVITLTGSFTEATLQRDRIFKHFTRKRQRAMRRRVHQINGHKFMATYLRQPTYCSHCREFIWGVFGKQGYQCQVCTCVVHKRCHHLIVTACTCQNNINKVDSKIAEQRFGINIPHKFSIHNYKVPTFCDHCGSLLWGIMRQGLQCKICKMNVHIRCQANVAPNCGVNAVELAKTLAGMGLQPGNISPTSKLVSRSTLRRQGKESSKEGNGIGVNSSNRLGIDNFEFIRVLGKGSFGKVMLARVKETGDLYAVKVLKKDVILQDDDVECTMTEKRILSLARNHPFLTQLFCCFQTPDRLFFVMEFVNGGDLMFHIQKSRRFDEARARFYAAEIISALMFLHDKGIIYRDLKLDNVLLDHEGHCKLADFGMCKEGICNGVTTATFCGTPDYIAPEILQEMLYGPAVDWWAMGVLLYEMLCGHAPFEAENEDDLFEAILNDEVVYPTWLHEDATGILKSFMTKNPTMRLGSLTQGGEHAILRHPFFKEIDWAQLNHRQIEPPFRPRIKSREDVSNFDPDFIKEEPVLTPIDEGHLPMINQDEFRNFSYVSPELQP
# T3 sequence (Q00526 whole entry): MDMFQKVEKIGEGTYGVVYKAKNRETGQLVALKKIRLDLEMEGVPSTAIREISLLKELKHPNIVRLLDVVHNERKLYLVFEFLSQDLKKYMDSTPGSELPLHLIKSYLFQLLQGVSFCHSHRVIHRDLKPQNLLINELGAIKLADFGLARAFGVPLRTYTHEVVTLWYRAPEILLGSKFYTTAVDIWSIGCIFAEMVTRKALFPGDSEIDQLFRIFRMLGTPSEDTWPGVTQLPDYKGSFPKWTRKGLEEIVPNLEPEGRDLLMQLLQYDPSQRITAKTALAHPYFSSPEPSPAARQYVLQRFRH
# T3 sequence (P24863 whole entry partner): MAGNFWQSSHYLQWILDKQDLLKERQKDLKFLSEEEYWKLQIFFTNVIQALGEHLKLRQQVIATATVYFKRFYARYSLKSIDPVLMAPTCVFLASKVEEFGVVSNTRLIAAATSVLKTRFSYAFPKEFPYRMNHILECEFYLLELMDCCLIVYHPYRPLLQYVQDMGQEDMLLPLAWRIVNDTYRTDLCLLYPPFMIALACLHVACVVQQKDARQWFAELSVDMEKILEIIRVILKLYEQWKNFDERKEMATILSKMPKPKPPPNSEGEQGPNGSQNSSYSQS
# T11 sequence (O75914 whole entry): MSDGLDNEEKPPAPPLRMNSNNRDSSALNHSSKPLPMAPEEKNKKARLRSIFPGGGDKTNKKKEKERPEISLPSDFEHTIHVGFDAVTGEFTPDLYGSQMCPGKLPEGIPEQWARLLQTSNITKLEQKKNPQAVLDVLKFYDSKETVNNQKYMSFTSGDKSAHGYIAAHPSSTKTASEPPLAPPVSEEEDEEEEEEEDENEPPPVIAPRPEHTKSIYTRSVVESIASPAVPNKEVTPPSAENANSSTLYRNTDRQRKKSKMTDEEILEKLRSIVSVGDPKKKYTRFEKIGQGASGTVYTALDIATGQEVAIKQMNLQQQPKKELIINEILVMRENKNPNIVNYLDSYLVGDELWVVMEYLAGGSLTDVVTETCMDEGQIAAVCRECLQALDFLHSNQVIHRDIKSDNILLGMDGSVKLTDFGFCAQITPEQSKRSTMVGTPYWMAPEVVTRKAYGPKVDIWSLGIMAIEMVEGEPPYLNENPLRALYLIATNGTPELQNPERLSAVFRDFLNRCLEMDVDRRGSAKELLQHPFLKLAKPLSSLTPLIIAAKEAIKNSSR
# T1 sequence (Q8N5S9 whole entry): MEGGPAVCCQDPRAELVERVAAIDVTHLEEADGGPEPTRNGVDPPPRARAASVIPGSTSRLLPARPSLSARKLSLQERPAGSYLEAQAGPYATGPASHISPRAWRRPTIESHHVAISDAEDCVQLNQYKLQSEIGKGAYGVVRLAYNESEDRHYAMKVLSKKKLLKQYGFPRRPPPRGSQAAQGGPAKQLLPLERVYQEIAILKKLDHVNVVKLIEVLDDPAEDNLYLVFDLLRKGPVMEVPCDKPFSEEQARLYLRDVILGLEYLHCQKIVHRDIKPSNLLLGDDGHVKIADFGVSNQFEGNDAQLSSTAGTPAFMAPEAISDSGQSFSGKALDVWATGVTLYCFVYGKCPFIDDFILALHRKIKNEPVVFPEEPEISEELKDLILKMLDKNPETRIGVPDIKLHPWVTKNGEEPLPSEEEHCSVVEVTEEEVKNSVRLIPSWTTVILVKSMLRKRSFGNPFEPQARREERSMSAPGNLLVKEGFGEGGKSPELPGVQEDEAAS
# T5 sequence (P19525 whole entry): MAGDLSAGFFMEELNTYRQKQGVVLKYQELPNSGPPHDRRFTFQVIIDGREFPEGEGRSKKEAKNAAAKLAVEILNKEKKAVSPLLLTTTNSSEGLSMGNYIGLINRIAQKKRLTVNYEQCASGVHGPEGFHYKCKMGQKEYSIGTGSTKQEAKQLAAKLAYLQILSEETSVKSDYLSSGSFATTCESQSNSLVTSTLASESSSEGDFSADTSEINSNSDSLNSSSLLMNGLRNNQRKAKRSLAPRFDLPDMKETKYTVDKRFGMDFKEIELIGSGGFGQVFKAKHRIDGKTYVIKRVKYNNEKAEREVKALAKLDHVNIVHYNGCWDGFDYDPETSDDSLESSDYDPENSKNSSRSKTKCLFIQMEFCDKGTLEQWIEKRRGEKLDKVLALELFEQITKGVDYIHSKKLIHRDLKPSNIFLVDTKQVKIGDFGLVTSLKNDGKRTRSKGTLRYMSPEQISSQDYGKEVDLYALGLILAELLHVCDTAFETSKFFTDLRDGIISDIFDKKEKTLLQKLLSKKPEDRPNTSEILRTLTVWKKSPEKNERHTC
# T13 sequence (Q6IQ55 whole entry): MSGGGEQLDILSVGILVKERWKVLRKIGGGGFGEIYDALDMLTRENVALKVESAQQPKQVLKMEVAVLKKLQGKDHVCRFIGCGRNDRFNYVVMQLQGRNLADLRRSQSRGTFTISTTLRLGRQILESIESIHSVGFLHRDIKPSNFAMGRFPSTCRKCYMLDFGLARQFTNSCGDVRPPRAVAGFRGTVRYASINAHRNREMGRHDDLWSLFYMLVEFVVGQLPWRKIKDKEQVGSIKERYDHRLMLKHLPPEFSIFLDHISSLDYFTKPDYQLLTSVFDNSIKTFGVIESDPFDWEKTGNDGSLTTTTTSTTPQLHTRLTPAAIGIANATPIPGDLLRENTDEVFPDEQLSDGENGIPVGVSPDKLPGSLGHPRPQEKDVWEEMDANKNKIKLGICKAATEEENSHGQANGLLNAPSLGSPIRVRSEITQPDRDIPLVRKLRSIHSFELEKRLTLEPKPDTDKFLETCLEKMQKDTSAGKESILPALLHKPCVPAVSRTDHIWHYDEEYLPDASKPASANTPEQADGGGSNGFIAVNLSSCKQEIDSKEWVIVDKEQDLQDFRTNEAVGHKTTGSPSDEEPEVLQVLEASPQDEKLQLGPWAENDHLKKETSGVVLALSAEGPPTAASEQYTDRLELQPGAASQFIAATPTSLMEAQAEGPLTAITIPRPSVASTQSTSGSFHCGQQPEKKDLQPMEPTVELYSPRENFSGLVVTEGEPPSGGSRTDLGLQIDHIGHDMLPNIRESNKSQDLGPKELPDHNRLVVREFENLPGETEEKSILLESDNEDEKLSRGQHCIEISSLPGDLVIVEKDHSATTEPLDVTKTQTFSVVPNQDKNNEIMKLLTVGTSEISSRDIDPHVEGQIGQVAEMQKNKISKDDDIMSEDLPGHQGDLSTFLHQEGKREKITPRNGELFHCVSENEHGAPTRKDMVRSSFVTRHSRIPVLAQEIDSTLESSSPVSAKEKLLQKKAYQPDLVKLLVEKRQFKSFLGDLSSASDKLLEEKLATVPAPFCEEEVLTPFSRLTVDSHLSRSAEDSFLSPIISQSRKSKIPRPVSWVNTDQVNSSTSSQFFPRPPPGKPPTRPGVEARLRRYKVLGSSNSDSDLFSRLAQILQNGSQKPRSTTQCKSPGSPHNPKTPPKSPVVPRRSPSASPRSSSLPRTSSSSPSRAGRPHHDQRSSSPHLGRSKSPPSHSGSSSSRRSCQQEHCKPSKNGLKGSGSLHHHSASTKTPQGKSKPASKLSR
# T4 sequence (P41279 whole entry): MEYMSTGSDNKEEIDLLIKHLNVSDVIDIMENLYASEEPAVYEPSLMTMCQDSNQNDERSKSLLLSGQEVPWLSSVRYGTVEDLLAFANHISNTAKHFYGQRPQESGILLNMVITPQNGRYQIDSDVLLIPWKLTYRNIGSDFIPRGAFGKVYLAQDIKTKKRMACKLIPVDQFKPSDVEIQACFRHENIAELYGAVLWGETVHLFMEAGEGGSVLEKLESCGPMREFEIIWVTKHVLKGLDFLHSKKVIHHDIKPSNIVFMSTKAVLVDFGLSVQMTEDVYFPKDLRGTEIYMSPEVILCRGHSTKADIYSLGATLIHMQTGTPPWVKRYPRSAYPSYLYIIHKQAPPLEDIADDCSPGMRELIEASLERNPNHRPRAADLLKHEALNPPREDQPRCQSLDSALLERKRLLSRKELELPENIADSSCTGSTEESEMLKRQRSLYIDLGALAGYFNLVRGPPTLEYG
Structure (SMILES),residual kinase activity (CAMKK1; 0.3 µM),residual kinase activity (CDK2/CycA2; 0.3 µM),residual kinase activity (CDK3/CycC; 0.3 µM),residual kinase activity (COT; 0.3 µM),residual kinase activity (EIF2AK2; 0.3 µM),residual kinase activity (FGFR1; 0.3 µM),residual kinase activity (LCK; 0.3 µM),residual kinase activity (MAP3K7/MAP3K7IP1; 0.3 µM),residual kinase activity (MST2; 0.3 µM),residual kinase activity (NEK2; 0.3 µM),residual kinase activity (PAK3; 0.3 µM),residual kinase activity (PKCη; 0.3 µM),residual kinase activity (TTBK2; 0.3 µM),other results
COc1ccnc2[nH]cc(-c3cc(N)nc(N)c3)c12 [meriolin 16],95 % of control,2 % of control,20 % of control,86 % of control,95 % of control,91 % of control,91 % of control,17 % of control,77 % of control,96 % of control,84 % of control,2 % of control,91 % of control,residual kinase activity (CAMKK1; 0.03 µM): 97 % of control; residual kinase activity (CDK2/CycA2; 0.03 µM): 18 % of control; residual kinase activity (CDK3/CycC; 0.03 µM): 71 % of control; residual kinase activity (COT; 0.03 µM): 104 % of control; residual kinase activity (EIF2AK2; 0.03 µM): 83 % of control; residual kinase activity (FGFR1; 0.03 µM): 103 % of control; residual kinase activity (LCK; 0.03 µM): 87 % of control; residual kinase activity (MAP3K7/MAP3K7IP1; 0.03 µM): 54 % of control; residual kinase activity (MST2; 0.03 µM): 100 % of control; residual kinase activity (NEK2; 0.03 µM): 103 % of control; residual kinase activity (PAK3; 0.03 µM): 85 % of control; residual kinase activity (PKCη; 0.03 µM): 8 % of control; residual kinase activity (TTBK2; 0.03 µM): 96 % of control
c1ccc(CNc2cc(-c3c[nH]c4ncccc34)ccn2)cc1 [meriolin 36],51 % of control,1 % of control,9 % of control,85 % of control,79 % of control,56 % of control,61 % of control,15 % of control,19 % of control,95 % of control,85 % of control,2 % of control,93 % of control,residual kinase activity (CAMKK1; 3 µM): 18 % of control; residual kinase activity (CDK2/CycA2; 3 µM): 2 % of control; residual kinase activity (CDK3/CycC; 3 µM): 3 % of control; residual kinase activity (COT; 3 µM): 92 % of control; residual kinase activity (EIF2AK2; 3 µM): 63 % of control; residual kinase activity (FGFR1; 3 µM): 16 % of control; residual kinase activity (LCK; 3 µM): 18 % of control; residual kinase activity (MAP3K7/MAP3K7IP1; 3 µM): 5 % of control; residual kinase activity (MST2; 3 µM): 4 % of control; residual kinase activity (NEK2; 3 µM): 72 % of control; residual kinase activity (PAK3; 3 µM): 40 % of control; residual kinase activity (PKCη; 3 µM): 2 % of control; residual kinase activity (TTBK2; 3 µM): 56 % of control
